Measurements: publication PMC11728000, “Antitumor Activity and Multi-Target Mechanism of Phenolic Schiff Bases Bearing Methanesulfonamide Fragments: Cell Cycle Analysis and a Molecular Modeling Study” (International Journal of Molecular Sciences, 2024)
Read-outs that look alike come from different tables or passages of the source.

Experiments:
MDA-MB-231/ATCC = test: NCI anticancer screening (SRB), Breast Cancer subpanel; format: cell-based, human
MDA-MB-435 = test: NCI anticancer screening (SRB), Melanoma subpanel; format: cell-based, human
786-0 = test: NCI anticancer screening (SRB), Renal Cancer subpanel; format: cell-based, human
EKVX = test: NCI anticancer screening (SRB), Non-Small Cell Lung Cancer subpanel; format: cell-based, human
LOX IMVI = test: NCI anticancer screening (SRB), Melanoma subpanel; format: cell-based, human
OVCAR-8 = test: NCI anticancer screening (SRB), Ovarian Cancer subpanel; format: cell-based, human
HCT-116 = test: NCI anticancer screening (SRB), Colon Cancer subpanel; format: cell-based, human
CAKI-1 = test: NCI anticancer screening (SRB), Renal Cancer subpanel; format: cell-based, human
SNB-19 = test: NCI anticancer screening (SRB), CNS Cancer subpanel; format: cell-based, human
UACC-62 = test: NCI anticancer screening (SRB), Melanoma subpanel; format: cell-based, human
OVCAR-4 = test: NCI anticancer screening (SRB), Ovarian Cancer subpanel; format: cell-based, human
NCI-H226 = test: NCI anticancer screening (SRB), Non-Small Cell Lung Cancer subpanel; format: cell-based, human
in vitro = conditions: human
Description: the measured protein at the end of the drug treatment as compared to that at the beginning) indicating a net loss of cells following treatment was calculated from [(Ti − Tz)/Tz] […] = − 50.
Values were calculated for each of these three parameters if the activity level was reached; however, if the effect was not reached or exceeded, that parameter's value was expressed as more or less than the maximum or minimum concentration tested. The log GI50, log TGI, and log LC50 were then determined and defined as the mean of the logs of the individual GI50, TGI, and LC50 values. The lowest values are obtained with the most sensitive cell lines. The compound with log GI50 values −4 and <−4 was declared active.
2. In vitro cytotoxic activity towards normal fibroblast (WI-38) cells Cell Lines were obtained from the American Type Culture Collection; cells were cultured using DMEM (Invitrogen/Life Technologies) supplemented with 10% FBS (Hyclone), ten ug/ml of insulin (Sigma), and 1% penicillin–streptomycin. Cultures were removed from the incubator into a laminar flow hood, reconstituted with 3 mL of balanced salt solution without phenol red and serum, and then added to an amount equal to 10% of the culture medium volume. Cultures returned to the incubator for 2–4 h. After the incubation period, the resulting formazan crystals dissolved […]
medium volume. The absorbance was measured Spectrophotometrically at a wavelength of 570 […]
3. In vitro cyclooxygenase (COX-2) inhibition assay
The ability of the test compounds to inhibit COX-2 was determined using an enzyme immunoassay […]
manufacturer’s instructions.

RXF 393 = test: NCI anticancer screening (SRB), Renal Cancer subpanel; format: cell-based, human
caspase-9 = test: Apoptotic markers assay, caspase-9 level in MCF-7 cells; format: cell-based, human; conditions: MCF-7 cells treated at IC50 concentrations; vs untreated control = 1
Description: We measured the apoptosis promoter Bax levels, the apoptosis inhibitor Bcl−2, and the apoptosis coordination enzymes caspase-8 and caspase-9 [32].
The apoptotic marker method was carried out using the reported procedure using MCF-7, the cancer cell line (Supplementary Materials). […]
7. Caspase-8 and 9 activation assay
A breast carcinoma (MCF-7) cell line was obtained from ATCC. […]
allowed cells to grow at 37 °C, stimulated with the compounds to be tested for caspase-8 or caspase-9 and lysed with Cell Extraction Buffer. Standard Diluent Buffer was used to dilute the lysate over the range of the assay and measure human active caspase-8 or caspase-9 content. (cells are Plated in a density of 1.2-1.8 X 10,000 cells/well in a volume of 100 µL complete growth medium + 100 µL of the tested compound per well in a 96-well plate for 24/48 h before the enzyme assay).
8. Evaluation of Bax and Bcl-2 expressions m RNA isolation was carried out using an RNeasy extraction kit, up to 1 X 107 cells. They were disrupted in Buffer RLT and homogenized. Ethanol was added to the lysate to promote the selective binding of RNA to the RNeasy membrane. Then, the sample was applied to the RNeasy

OVCAR-5 = test: NCI anticancer screening (SRB), Ovarian Cancer subpanel; format: cell-based, human
SW-620 = test: NCI anticancer screening (SRB), Colon Cancer subpanel; format: cell-based, human
A498 = test: NCI anticancer screening (SRB), Renal Cancer subpanel; format: cell-based, human
A549/ATCC = test: NCI anticancer screening (SRB), Non-Small Cell Lung Cancer subpanel; format: cell-based, human
NCI-H23 = test: as above; format: cell-based, human
SF-295 = test: NCI anticancer screening (SRB), CNS Cancer subpanel; format: cell-based, human
T-47D = test: NCI anticancer screening (SRB), Breast Cancer subpanel; format: cell-based, human
EGFR = EGFR (Homo sapiens, UniProt P00533); test: EGFR tyrosine kinase inhibition assay (Kinase-Glo MAX)
Sequence of EGFR (P00533 25-1210): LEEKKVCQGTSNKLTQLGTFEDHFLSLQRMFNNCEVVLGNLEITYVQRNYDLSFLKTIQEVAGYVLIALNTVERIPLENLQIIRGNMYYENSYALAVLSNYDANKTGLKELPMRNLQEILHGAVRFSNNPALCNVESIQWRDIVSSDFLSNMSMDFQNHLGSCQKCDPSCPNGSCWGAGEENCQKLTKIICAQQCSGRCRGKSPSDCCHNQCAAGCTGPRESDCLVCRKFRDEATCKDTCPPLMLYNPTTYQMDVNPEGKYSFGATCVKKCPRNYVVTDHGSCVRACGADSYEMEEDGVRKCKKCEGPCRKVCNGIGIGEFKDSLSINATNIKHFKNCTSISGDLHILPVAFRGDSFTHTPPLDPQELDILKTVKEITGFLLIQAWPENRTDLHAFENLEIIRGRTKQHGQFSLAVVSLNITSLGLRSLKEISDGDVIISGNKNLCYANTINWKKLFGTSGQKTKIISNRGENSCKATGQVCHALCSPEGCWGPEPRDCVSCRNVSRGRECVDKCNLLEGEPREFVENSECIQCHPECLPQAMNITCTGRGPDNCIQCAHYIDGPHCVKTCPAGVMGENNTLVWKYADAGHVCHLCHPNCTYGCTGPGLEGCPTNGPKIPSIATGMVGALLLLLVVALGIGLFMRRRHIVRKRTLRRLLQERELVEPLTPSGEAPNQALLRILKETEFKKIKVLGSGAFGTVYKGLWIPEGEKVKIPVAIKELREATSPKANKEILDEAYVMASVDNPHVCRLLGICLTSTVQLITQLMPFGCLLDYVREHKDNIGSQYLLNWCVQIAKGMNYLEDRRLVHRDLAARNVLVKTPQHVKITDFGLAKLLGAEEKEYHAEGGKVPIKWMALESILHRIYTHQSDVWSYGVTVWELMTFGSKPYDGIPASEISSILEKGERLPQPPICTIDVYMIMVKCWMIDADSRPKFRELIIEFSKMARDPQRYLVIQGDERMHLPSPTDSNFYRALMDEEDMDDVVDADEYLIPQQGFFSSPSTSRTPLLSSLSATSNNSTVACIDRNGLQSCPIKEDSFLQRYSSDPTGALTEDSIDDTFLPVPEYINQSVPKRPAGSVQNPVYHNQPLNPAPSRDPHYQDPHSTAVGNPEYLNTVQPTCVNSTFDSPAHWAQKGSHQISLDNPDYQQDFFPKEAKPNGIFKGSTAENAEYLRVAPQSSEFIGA

HCT-15 = test: NCI anticancer screening (SRB), Colon Cancer subpanel; format: cell-based, human
SF-539 = test: NCI anticancer screening (SRB), CNS Cancer subpanel; format: cell-based, human
MALME-3M = test: NCI anticancer screening (SRB), Melanoma subpanel; format: cell-based, human
SK-MEL-5 [1] = test: NCI anticancer screening (SRB), Melanoma subpanel; format: cell-based, human
NCI-H460 = test: NCI anticancer screening (SRB), Non-Small Cell Lung Cancer subpanel; format: cell-based, human
PC-3 = test: NCI anticancer screening (SRB), Prostate Cancer subpanel; format: cell-based, human
HL-60(TB) = test system: HL-60(TB); design: method as in https://dtp.cancer.gov/dtpstandard/dwindex/index.jsp; conditions: ref https://dtp.cancer.gov/dtpstandard/dwindex/index.jsp; cited from earlier work
SK-MEL-5 [2] = test system: SK-MEL-5; design: method as in https://dtp.cancer.gov/dtpstandard/dwindex/index.jsp; conditions: ref https://dtp.cancer.gov/dtpstandard/dwindex/index.jsp; cited from earlier work
[3] = Homo sapiens, five concentrations

CCN(CC)c1ccc(C=NNC(=O)c2ccc(NS(C)(=O)=O)cc2)c(O)c1 [Compound 8]
GI% (MDA-MB-231/ATCC; 10.0 µM in one dose): 62%
GI50 (MDA-MB-231/ATCC; [3]): 425 nM
GI% (MDA-MB-435; 10.0 µM in one dose): 71%
GI50 (MDA-MB-435; [3]): 558 nM
GI% (786-0; 10.0 µM in one dose): 98%
GI50 (786-0; [3]): 358 nM
GI% (EKVX; 10.0 µM in one dose): 84%
GI50 (EKVX; [3]): 386 nM
GI% (LOX IMVI; 10.0 µM in one dose): 100%
GI50 (LOX IMVI; [3]): 209 nM
GI% (OVCAR-8; 10.0 µM in one dose): 88%
GI50 (OVCAR-8; [3]): 312 nM
GI% (HCT-116; 10.0 µM in one dose): 78%
GI50 (HCT-116; Homo sapiens): 263 nM
GI% (CAKI-1; 10.0 µM in one dose): 81%
GI50 (CAKI-1; [3]): 464 nM
GI% (SNB-19; 10.0 µM in one dose): 65%
GI50 (SNB-19; [3]): 831 nM
GI% (UACC-62; 10.0 µM in one dose): 100%
GI50 (UACC-62; [3]): 375 nM
GI% (OVCAR-4; 10.0 µM in one dose): 69%
GI50 (OVCAR-4; [3]): 388 nM
GI% (NCI-H226; 10.0 µM in one dose): 61%
GI50 (NCI-H226; [3]): 986 nM
IC50 (in vitro): 82100 nM
GI% (RXF 393; 10.0 µM in one dose): > 100%
GI50 (RXF 393; [3]): 1040 nM
Casp9, Gene Expression (Fold Change) (caspase-9): 3.776 fold change
GI% (OVCAR-5; 10.0 µM in one dose): 54%
GI50 (OVCAR-5; [3]): 1890 nM
GI% (SW-620; 10.0 µM in one dose): 63%
GI50 (SW-620; [3]): 471 nM
GI% (A498; 10.0 µM in one dose): 81%
GI50 (A498; [3]): 2230 nM
GI% (A549/ATCC; 10.0 µM in one dose): 88%
GI50 (A549/ATCC; [3]): 1340 nM
GI% (NCI-H23; 10.0 µM in one dose): 77%
GI50 (NCI-H23; [3]): 1160 nM
GI% (SF-295; 10.0 µM in one dose): 90%
GI50 (SF-295; [3]): 517 nM
GI% (T-47D; 10.0 µM in one dose): 74%
GI50 (T-47D; Homo sapiens, T47D, five concentrations): 382 nM
IC50 (EGFR): 166 ± 33 nM
GI% (HCT-15; 10.0 µM in one dose): 80%
GI50 (HCT-15; [3]): 358 nM
GI% (SF-539; 10.0 µM in one dose): 93%
GI50 (SF-539; [3]): 362 nM
GI% (MALME-3M; 10.0 µM in one dose): 96%
GI50 (MALME-3M; [3]): 855 nM
GI% (SK-MEL-5 [1]; 10.0 µM in one dose): 100%
GI50 (SK-MEL-5 [1]; [3]): 1130 nM
GI% (NCI-H460; 10.0 µM in one dose): 97%
GI50 (NCI-H460; [3]): 475 nM
GI% (PC-3; 10.0 µM in one dose): 68%
GI50 (PC-3; [3]): 368 nM

C#Cc1cccc(Nc2ncnc3cc(OCCOC)c(OCCOC)cc23)c1 [Erlotinib, erlotinib]
GI50 (HL-60(TB)): 25100 nM

COc1cc2ncnc(Nc3ccc(F)c(Cl)c3)c2cc1OCCCN1CCOCC1 [Gefitinib, gefitinib]
GI50 (SK-MEL-5 [2]): 3160 nM
